Reference: US11058678B2 (Enanta Pharmaceuticals, Inc., priority 2018, dated 2021)

Experiments:
[1] = Compound induced cellular toxicity in HepG2 cells (ATPlite 1 Step); format: cell-based; conditions: human, three days, 50% reduction of total ATP levels vs no drug controls
Procedure: At day 3, post seeding cells are treated with ATPlite 1 Step according to the manufacturer's instructions.

HBV (2.2.15 cells) = experiment: Antiviral activity in 2.2.15 cells: reduction of viral product accumulation (qPCR of lysates, HBsAg or HBeAg ELISA); format: cell-based, hepatitis B virus (HBV); conditions: Hepatitis B virus, 120 h, day 5 post treatment, 50% reduction of viral product accumulation in lysates or supernatants vs no drug controls, readout (qPCR, HBsAg, HBeAg) not specified
Procedure, shortened: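 HBV-producing 2.2.15 cells, 35,000/well, treated with 5-fold serial compound dilutions at 0.5% final DMSO for 5 days. Lysate HBV DNA by qPCR or supernatant HBsAg/HBeAg by ELISA; EC50 is 50% reduction versus no-drug control, binned A<0.1 μM, B 0.1-1 μM, C>1 μM.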

SMILES	CC50 at 3 days [1] [nM]	EC50 (HBV (2.2.15 cells)) [nM]
COCCCOc1cc2c(cc1-c1sc(C)nc1C)-c1cc(=O)c(C(=O)O)cn1[C@H](C(C)(C)C)C2 [Example 20, (S)-6-(tert-butyl)-10-(2,4-dimethylthiazol-5-yl)-9-(3-methoxypropoxy)-2-oxo-6,7-dihydro-2H-pyrido[2,1-a]isoquinoline-3-carboxylic Acid]	> 25000	100 to 1000
COCCCOc1cc2c(cc1C1=COCC1)-c1cc(=O)c(C(=O)O)cn1[C@H](C(C)(C)C)C2 [Example 46, (S)-6-(tert-butyl)-10-(4,5-dihydrofuran-3-yl)-9-(3-methoxypropoxy)-2-oxo-6,7-dihydro-2H-pyrido[2,1-a]isoquinoline-3-carboxylic Acid]	> 25000	< 100
COCCCOc1cc2c(cc1-c1ccsc1)-c1cc(=O)c(C(=O)O)cn1[C@H](C(C)(C)C)C2 [Example 5, (S)-6-(tert-butyl)-9-(3-methoxypropoxy)-2-oxo-10-(thiophen-3-yl)-6,7-dihydro-2H-pyrido[2,1-a]isoquinoline-3-carboxylic Acid]	> 25000	< 100
CC(C)(C)[C@@H]1Cc2c(cc(-c3cccs3)c3c2CCO3)-c2cc(=O)c(C(=O)O)cn21 [Example 86, (S)-5-(tert-butyl)-9-oxo-12-(thiophen-2-yl)-2,3,4,9-tetrahydro-5H-furo[3,2-f]pyrido[2,1-a]isoquinoline-8-carboxylic Acid]	< 10000	< 100
COCCCOc1cc2c(cc1-n1cccn1)-c1cc(=O)c(C(=O)O)cn1[C@H](C(C)(C)C)C2 [Example 28, (S)-6-(tert-butyl)-9-(3-methoxypropoxy)-2-oxo-10-(1H-pyrazol-1-yl)-6,7-dihydro-2H-pyrido[2,1-a]isoquinoline-3-carboxylic Acid]	> 25000	100 to 1000
COCCCOc1cc2c(cc1C1=CCCCO1)-c1cc(=O)c(C(=O)O)cn1[C@H](C(C)(C)C)C2 [Example 29, (S)-6-(tert-butyl)-10-(3,4-dihydro-2H-pyran-6-yl)-9-(3-methoxypropoxy)-2-oxo-6,7-dihydro-2H-pyrido[2,1-a]isoquinoline-3-carboxylic Acid]	> 25000	100 to 1000
COCCCOc1cc2c(cc1-c1ccc(OC)cc1)-c1cc(=O)c(C(=O)O)cn1[C@H](C(C)(C)C)C2 [Example 17, (S)-6-(tert-butyl)-10-(4-methoxyphenyl)-9-(3-methoxypropoxy)-2-oxo-6,7-dihydro-2H-pyrido[2,1-a]isoquinoline-3-carboxylic Acid]	10000 to 25000	< 100
COCCCOc1cc2c(cc1-c1cnn(C)c1)-c1cc(=O)c(C(=O)O)cn1[C@H](C(C)(C)C)C2 [Example 4, (S)-6-(tert-butyl)-9-(3-methoxypropoxy)-10-(1-methyl-1H-pyrazol-4-yl)-2-oxo-6,7-dihydro-2H-pyrido[2,1-a]isoquinoline-3-carboxylic Acid]	> 25000	< 100
COCCCOc1cc2c(cc1-c1cc3ccccc3[nH]1)-c1cc(=O)c(C(=O)O)cn1[C@H](C(C)(C)C)C2 [Example 19, (S)-6-(tert-butyl)-10-(1H-indol-2-yl)-9-(3-methoxypropoxy)-2-oxo-6,7-dihydro-2H-pyrido[2,1-a]isoquinoline-3-carboxylic Acid]	> 25000	100 to 1000
CC(C)(C)[C@@H]1Cc2c(cc(-c3ccsc3)c3c2CCO3)-c2cc(=O)c(C(=O)O)cn21 [Example 71, (S)-5-(tert-butyl)-9-oxo-12-(thiophen-3-yl)-2,3,4,9-tetrahydro-5H-furo[3,2-f]pyrido[2,1-a]isoquinoline-8-carboxylic Acid]	< 10000	< 100
COCCCOc1cc2c(cc1-c1ccc(C)o1)-c1cc(=O)c(C(=O)O)cn1[C@H](C(C)(C)C)C2 [Example 1, (S)-6-(tert-butyl)-9-(3-methoxypropoxy)-10-(5-methylfuran-2-yl)-2-oxo-6,7-dihydro-2H-pyrido[2,1-a]isoquinoline-3-carboxylic Acid]	> 25000	< 100
CC(C)(C)[C@@H]1Cc2c(cc(-c3ccccc3F)c3c2CCO3)-c2cc(=O)c(C(=O)O)cn21 [Example 66, (S)-5-(tert-butyl)-12-(2-fluorophenyl)-9-oxo-2,3,4,9-tetrahydro-5H-furo[3,2-f]pyrido[2,1-a]isoquinoline-8-carboxylic Acid]	< 10000	< 100
CC(C)(C)[C@@H]1Cc2c(cc(-c3cccc(F)c3)c3c2CCO3)-c2cc(=O)c(C(=O)O)cn21 [Example 65, (S)-5-(tert-butyl)-12-(3-fluorophenyl)-9-oxo-2,3,4,9-tetrahydro-5H-furo[3,2-f]pyrido[2,1-a]isoquinoline-8-carboxylic Acid]	< 10000	< 100
COCCCOc1cc2c(cc1-c1ocnc1C(F)(F)F)-c1cc(=O)c(C(=O)O)cn1[C@H](C(C)(C)C)C2 [Example 27, (S)-6-(tert-butyl)-9-(3-methoxypropoxy)-2-oxo-10-(4-(trifluoromethyl)oxazol-5-yl)-6,7-dihydro-2H-pyrido[2,1-a]isoquinoline-3-carboxylic Acid]	> 25000	100 to 1000
COCCCOc1cc2c(cc1-c1cnco1)-c1cc(=O)c(C(=O)O)cn1[C@H]1[C@@H]2CCC1(C)C [Example 63, (3aS,12bR)-11-(3-methoxypropoxy)-3,3-dimethyl-10-(oxazol-5-yl)-7-oxo-1,2,3,3a,7,12b-hexahydrocyclopenta[c]pyrido[2,1-a]isoquinoline-6-carboxylic Acid]	10000 to 25000	< 100
COCCCOc1cc2c(cc1-c1cc3ccccc3o1)-c1cc(=O)c(C(=O)O)cn1[C@H](C(C)(C)C)C2 [Example 9, (S)-10-(benzofuran-2-yl)-6-(tert-butyl)-9-(3-methoxypropoxy)-2-oxo-6,7-dihydro-2H-pyrido[2,1-a]isoquinoline-3-carboxylic Acid]	> 25000	< 100
CC(C)[C@@H]1Cc2c(cc(-c3ccsc3)c3c2CCO3)-c2cc(=O)c(C(=O)O)cn21 [Example 100, (S)-5-isopropyl-9-oxo-12-(thiophen-3-yl)-2,3,4,9-tetrahydro-5H-furo[3,2-f]pyrido[2,1-a]isoquinoline-8-carboxylic Acid]	< 10000	< 100
COCCCOc1cc2c(cc1-c1ccco1)-c1cc(=O)c(C(=O)O)cn1[C@H](C(C)(C)C)C2 [Example 7, (S)-6-(tert-butyl)-10-(furan-2-yl)-9-(3-methoxypropoxy)-2-oxo-6,7-dihydro-2H-pyrido[2,1-a]isoquinoline-3-carboxylic Acid]	> 25000	< 100
COCCCOc1cc2c(cc1-c1c(C)oc3ccccc13)-c1cc(=O)c(C(=O)O)cn1[C@H](C(C)(C)C)C2 [Example 21, (S)-6-(tert-butyl)-9-(3-methoxypropoxy)-10-(2-methylbenzofuran-3-yl)-2-oxo-6,7-dihydro-2H-pyrido[2,1-a]isoquinoline-3-carboxylic Acid]	> 25000	100 to 1000
COCCCOc1cc2c(cc1-c1ccc(F)cc1)-c1cc(=O)c(C(=O)O)cn1[C@H]1[C@@H]2CCC1(C)C [Example 59]	10000 to 25000	< 100
CC(C)(C)[C@@H]1Cc2c(cc(-c3ccc(F)c(F)c3)c3c2CCO3)-c2cc(=O)c(C(=O)O)cn21 [Example 77, (S)-5-(tert-butyl)-12-(3,4-difluorophenyl)-9-oxo-2,3,4,9-tetrahydro-5H-furo[3,2-f]pyrido[2,1-a]isoquinoline-8-carboxylic Acid]	< 10000	< 100
COCCCOc1cc2c(cc1-c1cnco1)-c1cc(=O)c(C(=O)O)cn1[C@H](C(C)(C)C)C2 [Example 6, (S)-6-(tert-butyl)-9-(3-methoxypropoxy)-10-(oxazol-5-yl)-2-oxo-6,7-dihydro-2H-pyrido[2,1-a]isoquinoline-3-carboxylic Acid]	> 25000	< 100
CC(C)(C)[C@@H]1Cc2c(cc(-c3ccoc3)c3c2CCO3)-c2cc(=O)c(C(=O)O)cn21 [Example 64, (S)-5-(tert-butyl)-12-(furan-3-yl)-9-oxo-2,3,4,9-tetrahydro-5H-furo[3,2-f]pyrido[2,1-a]isoquinoline-8-carboxylic Acid]	< 10000	< 100
COCCCOc1cc2c(cc1-c1cc[nH]c1)-c1cc(=O)c(C(=O)O)cn1[C@H](C(C)(C)C)C2 [Example 11, (S)-6-(tert-butyl)-9-(3-methoxypropoxy)-2-oxo-10-(1H-pyrrol-3-yl)-6,7-dihydro-2H-pyrido[2,1-a]isoquinoline-3-carboxylic Acid]	> 25000	< 100
